From patent US9938322B2, “β-hairpin peptidomimetics” (priority 2013, dated 2018)
*1 amine or outer side, *2 acyl side, *3 side chain or, on linkers, in order; H or OH if unused. Where a SMILES comes first, the peptide text is derived from it. Side-chain parts run from the residue outwards. [ ]: non-standard residue; d: D form. The star is where a group is joined. Cha = N[C@@H](CC1CCCCC1)C(=O)O; NH(3-picolyl) = c1cncc(CN*)c1; Tle = CC(C)(C)[C@H](N)C(=O)O; dDab = NCC[C@@H](N)C(=O)O; hSer = N[C@@H](CCO)C(=O)O; Orn = NCCC[C@H](N)C(=O)O; Dab = NCC[C@H](N)C(=O)O; Dap = NC[C@H](N)C(=O)O; X4 = CCCCOc1ccc(N*)cc1; CO = O=C([*:1])[*:2]; NHiPr = CC(C)N*

Test system: human red blood cells (hRBC)
Experiment: Hemolysis of human red blood cells
Assay type: cell-based
Details: red cells of human, 1 h, 100
Procedure, shortened: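 Washed fresh human erythrocytes (20% v/v, about 0.9×10^9 cells/ml final) incubated with peptide at 100 μg/ml for 1 h at 37° C with shaking. Supernatant OD540 read; hemolysis expressed relative to 2.5% Triton X-100 (100%) and PBS with 0.001% acetic acid (0%).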

Structure (SMILES) | Hemolysis at 100 μg/ml [%]
CC(C)C[C@@H]1NC(=O)[C@@H]2CCCN2C(=O)[C@H]2CCCN2C(=O)[C@H](CO)NC(=O)[C@H](C)NC(=O)[C@H](C(C)(C)C)NC(=O)[C@H](CCN)NC(=O)[C@H](Cc2c[nH]c3ccccc23)NC(=O)[C@H](CCN)NC(=O)[C@@H](CCN)NC(=O)[C@H](CCCN)NC(=O)[C@H](CCN)NC(=O)[C@H](CC2CCCCC2)NC(=O)[C@H](CNC(=O)NCc2cccnc2)NC1=O [compound 39] (cyclo(L[Dap]([CO-NH(3-picolyl)])[Cha][Dab][Orn][dDab][Dab]W[Dab][Tle]AS[dP]P)) | 3
CC(C)C[C@@H]1NC(=O)[C@@H]2CCCN2C(=O)[C@H]2CCCN2C(=O)[C@H](CO)NC(=O)[C@H](C)NC(=O)[C@H](C(C)(C)C)NC(=O)[C@H](CCN)NC(=O)[C@H](Cc2c[nH]c3ccccc23)NC(=O)[C@H](CCN)NC(=O)[C@@H](CCN)NC(=O)[C@H](CCCN)NC(=O)[C@H](CCN)NC(=O)[C@H](CC2CCCCC2)NC(=O)[C@H](CNC(=O)NC(C)C)NC1=O [compound 40] (cyclo(L[Dap]([CO-NHiPr])[Cha][Dab][Orn][dDab][Dab]W[Dab][Tle]AS[dP]P)) | 1
CCCCOc1ccc(NC(=O)NC[C@@H]2NC(=O)[C@H](CC(C)C)NC(=O)[C@@H]3CCCN3C(=O)[C@H]3CCCN3C(=O)[C@H](CO)NC(=O)[C@H](C)NC(=O)[C@H](C(C)(C)C)NC(=O)[C@H](CCN)NC(=O)[C@H](Cc3c[nH]c4ccccc34)NC(=O)[C@H](CCN)NC(=O)[C@@H](CCN)NC(=O)[C@H](CCCN)NC(=O)[C@H](CCN)NC(=O)[C@H](CC3CCCCC3)NC2=O)cc1 [compound 41] (cyclo(L[Dap]([CO-X4])[Cha][Dab][Orn][dDab][Dab]W[Dab][Tle]AS[dP]P)) | 7
CC(C)C[C@@H]1NC(=O)[C@@H]2CCCN2C(=O)[C@H]2CCCN2C(=O)[C@H](CN)NC(=O)[C@H](C)NC(=O)[C@H](C(C)(C)C)NC(=O)[C@H](CCO)NC(=O)[C@H](Cc2c[nH]c3ccccc23)NC(=O)[C@H](CCN)NC(=O)[C@@H](CCN)NC(=O)[C@H](CCCN)NC(=O)[C@H](CCN)NC(=O)[C@H](Cc2ccc(O)cc2)NC(=O)[C@H](CO)NC1=O [compound 42] (cyclo(LSY[Dab][Orn][dDab][Dab]W[hSer][Tle]A[Dap][dP]P)) | 1
CC(C)C[C@@H]1NC(=O)[C@@H]2CCCN2C(=O)[C@H]2CCCN2C(=O)[C@H](CO)NC(=O)[C@H](C)NC(=O)[C@H](C(C)(C)C)NC(=O)[C@H](CCN)NC(=O)[C@H](Cc2c[nH]c3ccccc23)NC(=O)[C@H](CCN)NC(=O)[C@@H](CCN)NC(=O)[C@H](CCCN)NC(=O)[C@H](CCN)NC(=O)[C@H](Cc2ccc(O)cc2)NC(=O)[C@H](C)NC1=O [compound 43] (cyclo(LAY[Dab][Orn][dDab][Dab]W[Dab][Tle]AS[dP]P)) | 1
CC[C@H](C)[C@@H]1NC(=O)[C@@H]2CCCN2C(=O)[C@H]2CCCN2C(=O)[C@H](CO)NC(=O)[C@H](C)NC(=O)[C@H](C(C)(C)C)NC(=O)[C@H](CCN)NC(=O)[C@H](Cc2c[nH]c3ccccc23)NC(=O)[C@H](CCN)NC(=O)[C@@H](CCN)NC(=O)[C@H](CCCN)NC(=O)[C@H](CCN)NC(=O)[C@H](Cc2ccc(O)cc2)NC(=O)[C@H](CO)NC1=O [compound 44] (cyclo(ISY[Dab][Orn][dDab][Dab]W[Dab][Tle]AS[dP]P)) | 2
CC(C)[C@@H]1NC(=O)[C@@H]2CCCN2C(=O)[C@H]2CCCN2C(=O)[C@H](CO)NC(=O)[C@H](C)NC(=O)[C@H](C(C)(C)C)NC(=O)[C@H](CCN)NC(=O)[C@H](Cc2c[nH]c3ccccc23)NC(=O)[C@H](CCN)NC(=O)[C@@H](CCN)NC(=O)[C@H](CCCN)NC(=O)[C@H](CCN)NC(=O)[C@H](Cc2ccc(O)cc2)NC(=O)[C@H](CO)NC1=O [compound 45] (cyclo(VSY[Dab][Orn][dDab][Dab]W[Dab][Tle]AS[dP]P)) | 2
